Measured values: PubChem BioAssay (NCI)
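Values below derive from 48-hour exposures of cells grown in 96-well plates, with endpoints linearly interpolated between the two concentrations bracketing the appropriate inhibition level. The concentration for 50% growth inhibition is given as GI50. TGI denotes the concentration required for complete inhibition of growth.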

What was measured:
Assay in all cases: NCI anticancer screen, dose series, 48 h
SK-MEL-5 melanoma = tested on: SK-MEL-5 melanoma
SW-620 colon = tested on: SW-620 colon
MOLT-4 leukemia = tested on: MOLT-4 leukemia
SK-OV-3 ovarian = tested on: SK-OV-3 ovarian
HT29 colon = tested on: HT29 colon
SN12C renal = tested on: SN12C renal
CAKI-1 renal = tested on: CAKI-1 renal
OVCAR-5 ovarian = tested on: OVCAR-5 ovarian
SR leukemia = tested on: SR leukemia

| SMILES | TGI (SK-MEL-5 melanoma) [µM] | TGI (SW-620 colon) [µM] | TGI (MOLT-4 leukemia) [µM] | TGI (SK-OV-3 ovarian) [µM] | TGI (HT29 colon) [µM] | TGI (SN12C renal) [µM] | TGI (CAKI-1 renal) [µM] | TGI (OVCAR-5 ovarian) [µM] | TGI (SR leukemia) [µM] | GI50 (SK-MEL-5 melanoma) [µM] | GI50 (SW-620 colon) [µM] | GI50 (MOLT-4 leukemia) [µM] | GI50 (SK-OV-3 ovarian) [µM] | GI50 (HT29 colon) [µM] | GI50 (SN12C renal) [µM] | GI50 (CAKI-1 renal) [µM] | GI50 (OVCAR-5 ovarian) [µM] | GI50 (SR leukemia) [µM] |
| --- | --- | --- | --- | --- | --- | --- | --- | --- | --- | --- | --- | --- | --- | --- | --- | --- | --- | --- |
| CC(=O)NC1C(OCc2ccccc2)OC(CO)C(O)C1OC(C)C(=O)NC(C(=O)NC(CCC(=O)NCCCCNc1c2ccccc2nc2cccc([N+](=O)[O-])c12)C(N)=O)C(C)C (stereo not drawn) | 7.39 | > 32.9 | 26.8 | > 63.3 | 8.71 | 9.53 | > 100 | 19.8 | 2.61 |  |  |  |  |  |  |  |  |  |
| C=CCOn1c(C=C)nc2ccc(C)cc21 | 31.4 | 40.8 | 68.8 | > 100 | 30.2 | 33.4 | 49.3 | 41.7 | 33.4 |  |  |  |  |  |  |  |  |  |
| C=C(C)CC1(O[Si](C)(C)C)C(=O)C(OCC)=C1OCC (stereo not drawn) | > 100 | > 100 | > 100 | > 100 | > 100 | > 100 | > 100 | > 100 |  |  |  |  |  |  |  |  |  |  |
| C/C(=N\Nc1nc2cc(C(F)(F)F)ccc2s1)c1ccccn1 | 12.1 | 7.65 |  | 11.3 | 1.81 | 1.51 | 5.14 | 23.4 |  |  |  |  |  |  |  |  |  |  |
| CN(C)Cc1cc(C(=O)/C=C/c2ccccc2)cc(CN(C)C)c1O | 38.4 | 45.1 | 63.7 |  | 41.4 | 30.9 | 61.8 | > 100 | 59.1 |  |  |  |  |  |  |  |  |  |
| CC(C)(C)CC(C)(C)c1cc(O)c(O)c(CN2CCCCC2)c1 | 28.9 | 28 | 16.4 | 34.8 | 19.7 | 30.3 | 27.9 | 31.8 |  |  |  |  |  |  |  |  |  |  |
| CN1CC2=C(NC(=S)NC2c2ccccc2)/C(=C/c2ccccc2)C1 (stereo not drawn) | 74.1 | > 100 | 44.7 | 61.8 | 71.7 | > 100 | > 100 | > 100 | > 100 |  |  |  |  |  |  |  |  |  |
| CN1C(=O)C(O)C[C@@H]1c1ccccc1 (stereo partly drawn) | > 100 | > 100 | > 100 | > 100 | > 100 | > 100 | > 100 | > 100 | > 100 |  |  |  |  |  |  |  |  |  |
| CCOP(=O)(O)CN1CCNCCN(CP(=O)(O)OCC)CCNCC1 | > 100 | > 100 | > 100 | > 100 | > 100 | > 100 | > 100 | > 100 |  |  |  |  |  |  |  |  |  |  |
| COc1ccc2[nH]c(O)c(/C=c3/cc4c(c(-c5ccc(F)c(OC)c5)n3)=Nc3ccccc3-4)c2c1 | 22 | 3.8 | 5.68 | 26.2 | 4 | 30.5 | 36.9 | 10.8 | 6.96 | 3.07 | 1.77 | 2.3 | 11.3 | 2.03 | 12.9 | 18.2 | 3.56 | 1.86 |
| COc1cc(C2C(Cl)C(=O)N2c2c(C)n(C)n(-c3ccccc3)c2=O)ccc1O (stereo not drawn) | 53.7 | 36.4 | 67 | 80.2 | 36 | 37.9 | > 100 | 42.7 | 58.6 |  |  |  |  |  |  |  |  |  |
| COC[C@@H](N=Cc1ccc([N+](=O)[O-])cc1)C(C)C |  | > 100 | > 100 | > 100 | > 100 | > 100 | > 100 | > 100 | > 100 |  |  |  |  |  |  |  |  |  |
| O=C(Nc1ccccc1C(=O)NCc1ccccc1)/C(=C/c1ccccc1)NC(=O)c1ccccc1 | > 100 | > 100 | > 100 | > 100 | > 100 | > 100 | > 100 | > 100 | > 100 |  |  |  |  |  |  |  |  |  |
| Cn1c(=O)oc2nc(-c3ccccc3)cc(C(F)(F)F)c21 | > 100 | > 100 | > 100 | > 100 | > 100 | > 100 | > 100 | > 100 | > 100 |  |  |  |  |  |  |  |  |  |
| COc1ccc(-c2oc3cc(O)cc(O)c3c(=O)c2OC)cc1 | 43.5 | > 100 | 87.9 | > 100 | 68.3 |  | 60 | > 100 | > 100 |  |  |  |  |  |  |  |  |  |
| O=C1OC[C@H]2[C@@H]1[C@H]1O[C@@H]2C2=C(CCC2)C1=O | > 100 | > 100 |  | > 100 | > 100 | > 100 |  | > 100 | > 100 |  |  |  |  |  |  |  |  |  |
| CCN=C1C=CC(=C(c2ccc(N(CC)CC)cc2)c2ccc(N(CC)CC)cc2)c2ccccc21 | 0.133 |  |  | 0.601 | 1.01 |  | 0.273 | 1.23 |  | 0.0363 |  |  | 0.0823 | 0.033 |  | 0.0335 | 0.294 |  |
| Cc1ccc(S(=O)CC(CF)OCn2cc(C)c(=O)[nH]c2=O)cc1 (stereo not drawn) | > 100 | > 100 | > 100 | > 100 |  | > 100 | > 100 | > 100 | > 100 |  |  |  |  |  |  |  |  |  |
| C=C=C(CC(CC(=C)Br)(C(=O)OC)C(=O)OC)S(=O)(=O)c1ccccc1 | 10.3 | 2.99 | > 100 | 30.2 | 2.95 | 3.13 | 2.71 | 3.43 |  |  |  |  |  |  |  |  |  |  |
| CCOC(=O)Nn1c(CC#N)nnc1Cc1ccccc1 | > 100 | > 100 | > 100 |  | > 100 | > 100 | > 100 | > 100 | > 100 |  |  |  |  |  |  |  |  |  |
| Cc1c(C(=O)OCc2ccccc2)[n+](=O)c2cc(Cl)c(Cl)cc2n1[O-] | 28.2 |  | 21.5 | 60 | 32.2 | 45.3 | 28.2 | 39.2 | 21.4 |  |  |  |  |  |  |  |  |  |
| C/C(=N\Nc1nc2ccccc2n1C)c1cc2ccccc2cn1 | 12.4 | 11.3 |  | 0.761 | 3.54 | 3.29 | 12.5 | 21.6 | > 100 |  |  |  |  |  |  |  |  |  |
